This note sets out measurements from patent EP0086647A2, “Pyrimidone compounds, their preparation, and pharmaceutical compositions containing them” (YAMANOUCHI PHARMACEUTICAL CO. LTD., priority 1982, dated 1983).

For one experiment, the system named is gastric acid secretion. Description: Acid inhibition, Shay (4hr.) / (Dog), results table. The experiment is classed as in vivo.
Experiment [1] is described as follows: Cytoprotective action (animal experiment methods, not described). The class given is in vivo. Further details: key: *: These compounds also have cytoprotective action.

Counter-ions that a name gives are not always drawn.

With `CCCc1c(C)[nH]c(CCSCc2csc(N=C(N)N)n2)nc1=O` [Example 28], the “Acid Inhibition Shay(4hr.) (mg./kg.) (Dog)” value in the experiment on gastric acid secretion (dose 0.1mg (mg./kg.)) was 60%(0.1mg).
`CCN(CC)CCCc1c(C)[nH]c(CCSCc2csc(N=C(N)N)n2)nc1=O` [Example 17, 2-(2-[[[2-((diaminomethylene)amino)-4-t:hiazolyl]methyl]-thio]ethyl]-5-(3-diethylaminopropyl)-6-methyl-4(1H)-pyrimidone tri-hydrochloride]: the “Acid Inhibition Shay(4hr.) (mg./kg.) (Dog)” value with gastric acid secretion (dose 3mg (mg./kg.)) was 83%(3mg).
With `CCc1c(C)[nH]c(CCSCc2csc(N=C(N)N)n2)nc1=O` [Example 27, 2-[2-[[[2-[(diaminomethylene)amino)-4-thiazolyl]methyl]thio]-ethyl]-5-ethyl-6-methyl-4(1H)-pyrimidone], the “Acid Inhibition Shay(4hr.) (mg./kg.) (Dog)” value in the experiment on gastric acid secretion (dose 0.1mg (mg./kg.)) was 90%(0.1mg).
Take `CCCCCc1c(C)[nH]c(CCSCc2csc(N=C(N)N)n2)nc1=O.Cl.Cl` [Example 31, 2-[2-[[[2-[(diaminomethylene)amino]-4-thiazolyl]methyl]thio]-ethyl]-6-methyl-5-n-pentyl-4(1H)-pyrimidone di-hydrochloride]: the “Acid Inhibition Shay(4hr.) (mg./kg.) (Dog)” value in the experiment on gastric acid secretion (dose 0.1mg (mg./kg.)) was 95%(0.1mg). In addition, the cytoprotective action entry in experiment [1] is “R=amyl*”.
On to `C#CCc1c(C)[nH]c(CCSCc2csc(N=C(N)N)n2)nc1=O` [Example 29, 2-[2-[[[2-[(diaminomethylene)amino]-4-thiazolyl]methyl]thio]-ethyl]-6-methyl-5-(2-propinyl)-4(1H)-pyrimidone], for which the “Acid Inhibition Shay(4hr.) (mg./kg.) (Dog)” value in the experiment on gastric acid secretion (dose 0.1mg (mg./kg.)) is given as 95%(0.1mg).
Regarding `Cc1[nH]c(CCSCc2csc(N=C(N)N)n2)nc(=O)c1CCC(C)C` [Example 32, 2-[2-[[[2-[(diaminomethylene)amino]-4-thiazolyl]methyl]thio]-ethyl)-6-methyl-5-(3-methylbutyl)-4(lH)-pyrimidone di-hydrochloride], the cytoprotective action entry in experiment [1] is “R=iso-amyl*”.
`CCCCc1c(C)[nH]c(CCSCc2csc(N=C(N)N)n2)nc1=O` [Example 30, 2-[2-[[[2-[(diaminomethylene)amino]-4-thiazolyl]methyl]thio]-ethyl]-5-n-butyl-6-methy-1-4(1H)-pyrimidone di-hydrochloride]: the “Acid Inhibition Shay(4hr.) (mg./kg.) (Dog)” value in the experiment on gastric acid secretion (dose 0.1mg (mg./kg.)) is recorded as 70%(0.1mg). Further, the cytoprotective action result in experiment [1] is on record as “R=butyl*”.
